Test results from PubChem BioAssay AID1159565 (GlaxoSmithKline (GSK), 2015).
Active and inactive are the calls of the source. No rule for the calls is given here.

System: T. cruzi-infected H9C2 cardiomyocytes, high-content imaging
Test: anti-T. cruzi activity in infected cardiomyocytes – imaging, H9C2 host cardiomyocytes, host toxicity (AID 1159565);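 also: infected cells incubated 72 h after plating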
[1] = measured here: H9C2 host cell toxicity
[2] = measured here: amastigotes per cell

SMILES | IC50 | IC50 [1] | IC50 [2]
CC(C)(C)CC(=O)NCc1noc(COc2ccccc2)n1 | 2.5 µM | > 50 µM | 2.5 µM
Fc1ccc(Nc2nc(-c3ccccn3)cs2)cc1 | 5 µM | 1 µM | 5 µM
CN(Cc1ccc(C(N)=O)cc1)C(c1ccc(F)cc1)c1cccnc1 (stereo not given) | 0.25 µM | > 50 µM | 0.2 µM
CCOc1ccc(OCC(=O)N2c3ccccc3CC2C(=O)NC)cc1 (stereo not given) | > 50 µM (inactive) | > 50 µM | > 50 µM
COc1ccc(CNc2cc(C3CC3)nc(-c3nccn3C)n2)cc1 | 0.79 µM | 1 µM | 0.63 µM
Cc1cc(N2CCc3ccccc3C2)nc(Nc2ccc(S(=O)(=O)N3CCOCC3)cc2)n1 | > 50 µM (inactive) | > 50 µM | 25 µM
CN(C)Cc1cccc(Nc2nccc(-c3ccc(NCCN)c(C#N)c3)n2)c1 | 10 µM | 2 µM | 1.6 µM
COc1ccc(NS(=O)(=O)c2cc(-c3cc(C)[nH]n3)ccc2C)cc1OC | 2 µM | > 50 µM | 1.3 µM
CC(C)(C)C(O)(CCc1ccc(Cl)cc1)Cn1cncn1 (stereo not given) | 0.25 µM | > 50 µM | 0.2 µM
COc1ccnc2[nH]cc(-c3cc(C(=O)N[C@H](CO)c4ccccc4)co3)c12 | 20 µM | 0.32 µM | 7.9 µM
O=C(NC(CO)c1ccc(F)cc1)c1ccc(-c2c[nH]c3ncccc23)s1 (stereo not given) | 16 µM | 4 µM | 13 µM
CC1(Oc2cncc(Cl)c2)CCN(Cc2cc3ccccc3[nH]2)C1 (stereo not given) | 1.6 µM | 10 µM | 1 µM
N#Cc1cccc(Nc2nccc(N3CCC(NS(=O)(=O)c4cccc(C#N)c4)CC3)n2)c1 | 7.9 µM | 32 µM | 3.2 µM
COc1cccc(NS(=O)(=O)c2ccc3[nH]cc(C(=O)NCCC(C)C)c(=O)c3c2)c1 | 32 µM | 13 µM | 16 µM
O=C(Nc1ccc(Br)cn1)c1ccc(Cn2cnc([N+](=O)[O-])n2)cc1 | 0.13 µM | > 50 µM | 0.079 µM
CN(C)CCOc1ccc(N2CCN(S(=O)(=O)c3ccc(Cl)cc3)CC2)cc1 | 0.63 µM | > 50 µM | 0.5 µM
CC(=O)NC1(c2ccccc2)CCN(CC(=O)Nc2ccccc2-c2ccccc2)CC1 | 7.9 µM | > 50 µM | 1.6 µM
COc1ccc(C(=O)Nc2c(C)nn(COc3cccc(C(F)(F)F)c3)c2C)cc1 | 40 µM | > 50 µM | 25 µM
Cc1cc(N(C)C)nc2ccc(Cc3cnc(N)nc3N)cc12 | 6.3 µM | > 50 µM | 3.2 µM
COc1ccc(S(=O)(=O)Nc2ccccc2OC)cc1NC(=O)CCCc1c[nH]c2ccccc12 | 1.3 µM | > 50 µM | 1 µM
COc1cc2c(cc1OC)[C@H]1[C@@H](C)c3ccc(OC)c(OC)c3CN1CC2 | > 50 µM (inactive) | > 50 µM | 20 µM
CCOc1ccc(NC(=O)c2ccc(NC(=O)NC3CCCCC3)cc2)cc1 | > 50 µM (inactive) | > 50 µM | > 50 µM
O=C(CCCNC(=O)c1ccc(Cl)cc1)Nc1nc(-c2ccccn2)cs1 | 25 µM | 25 µM | 10 µM
CC1CCCN(S(=O)(=O)c2ccc(C(=O)Nc3nc(-c4ccccn4)cs3)cc2)C1 (stereo not given) | 0.5 µM | 3.2 µM | 0.25 µM
Nc1nccc(-c2csc(Nc3ccc(Cl)cc3)n2)n1 | > 50 µM (inactive) | 2 µM | > 50 µM

SMILES | IC50 | IC50 [1] | IC50 [2]
O=C(Nc1ncc([N+](=O)[O-])s1)C1CC1 | 1 µM | > 50 µM | 0.4 µM
CC(=O)Nc1ccc(-c2cnc(N)c(-c3nc4ccc(F)cc4[nH]3)c2)cc1 | > 50 µM (inactive) | 0.79 µM | > 50 µM
Cc1ccc(NC(=O)C(C)n2nc([N+](=O)[O-])c(Br)c2C)cc1Cl (stereo not given) | 6.3 µM | > 50 µM | 3.2 µM
COc1ccc(OC)c(NC(=O)c2ccc([N+](=O)[O-])o2)c1 | 13 µM | 4 µM | 7.9 µM
CN1CCN(c2nc(-c3ccc(Cl)cc3)c3c(N)n(C)nc3n2)CC1 | 1 µM | 25 µM | 0.79 µM
COc1cc(Cl)c(C)cc1NC(=O)c1ccc([N+](=O)[O-])s1 | 0.63 µM | 2.5 µM | 0.5 µM
COc1ccc(Nc2nc(-c3ccccn3)cc(N3CCCC(O)C3)n2)cc1 (stereo not given) | 5 µM | 4 µM | 7.9 µM
O=C(Nc1ccc(-c2nc3ccccc3c(=O)[nH]2)cc1)c1cccs1 | > 50 µM (inactive) | > 50 µM | > 50 µM
Cc1[nH]nc2c1C(c1ccc(OCc3ccccc3F)cc1)SCC(=O)N2 (stereo not given) | 3.2 µM | > 50 µM | 0.79 µM
COc1ccc(-c2cc(C)no2)cc1S(=O)(=O)Nc1ccc(F)c(Cl)c1 | 3.2 µM | 50 µM | 4 µM
CN1CCC(N(C)c2nccc(N3CCN(C(=O)c4cccc(-c5cccnc5)c4)CC3)n2)CC1 | 1.3 µM | 7.9 µM | 1 µM
Cc1cc(NC(=O)CC2CCCCC2)n(-c2nc3c(c(=O)[nH]2)CCC3)n1 | 0.32 µM | 4 µM | 0.13 µM
COc1cccc(S(=O)(=O)Nc2ccc3c(c2)CC(N2CCC(NC(=O)C4CC4)CC2)C3)c1 (stereo not given) | > 50 µM (inactive) | > 50 µM | 32 µM
Cc1nccn1C1CCCN(C(=O)c2cc3c(F)cccc3s2)C1 (stereo not given) | 1 µM | > 50 µM | 0.79 µM
CN(C)c1ccc(N)cc1CN(CC1CCCO1)S(C)(=O)=O (stereo not given) | > 50 µM (inactive) | > 50 µM | > 50 µM
O=C1CN(Cc2ccco2)C2CS(=O)(=O)CC2N1c1ccc(Cl)cc1 (stereo not given) | > 50 µM (inactive) | > 50 µM | > 50 µM
COc1ccc(S(=O)(=O)NCc2ccc(-c3ccc(CN(C)CCO)cc3)cc2)cc1 | 2.5 µM | > 50 µM | 1.3 µM
O=C(Nc1ccc(C(=O)N2CCCC2c2ccc3c(c2)OCCCO3)cc1)c1ccco1 (stereo not given) | 1 µM | > 50 µM | 0.63 µM
Cc1cc(Nc2cc(C3CC3)[nH]n2)nc(N2CCCC2)n1 | 0.1 µM | 0.25 µM | 0.079 µM
Cc1ccccc1NS(=O)(=O)c1ccc2[nH]cc(C(=O)NC3CCCC3)c(=O)c2c1 | 32 µM | 20 µM | 25 µM
CCC(CC)C(=O)Nc1cccc(C(=O)Nc2nnc(C3CCCCC3)s2)c1 | 25 µM | > 50 µM | 16 µM
Clc1ccc(C(CC2CCCCO2)Cn2cncn2)c(Cl)c1 (stereo not given) | 1.3 µM | > 50 µM | 1 µM
Cc1cnc(Nc2cc(Cc3ccccc3)nc(NC3CCC(O)CC3)n2)s1 (stereo not given) | 0.13 µM | 0.032 µM | 0.05 µM
COc1cccc(C(=O)[C@H]2C[C@@H]2CN(Cc2ccccn2)Cc2ccccn2)c1 | 1.3 µM | 20 µM | 0.79 µM
CC(=O)Nc1ccc(-c2noc(CC3CCCN(Cc4cccc(F)c4C)C3)n2)cc1 (stereo not given) | 2 µM | 32 µM | 1.3 µM
